# Data from patent US20240366598A1, “GLUCOSE-DEPENDENT INSULINOTROPIC POLYPEPTIDE RECEPTOR ANTAGONISTS AND USES THEREOF” (Pfizer Inc., priority 2023, published 2024).
# Biological target: T1, human Glucose-dependent Insulinotropic Polypeptide Receptor (hGIPR) (Homo sapiens, UniProt P48546)
# T1 sequence (P48546 22-466): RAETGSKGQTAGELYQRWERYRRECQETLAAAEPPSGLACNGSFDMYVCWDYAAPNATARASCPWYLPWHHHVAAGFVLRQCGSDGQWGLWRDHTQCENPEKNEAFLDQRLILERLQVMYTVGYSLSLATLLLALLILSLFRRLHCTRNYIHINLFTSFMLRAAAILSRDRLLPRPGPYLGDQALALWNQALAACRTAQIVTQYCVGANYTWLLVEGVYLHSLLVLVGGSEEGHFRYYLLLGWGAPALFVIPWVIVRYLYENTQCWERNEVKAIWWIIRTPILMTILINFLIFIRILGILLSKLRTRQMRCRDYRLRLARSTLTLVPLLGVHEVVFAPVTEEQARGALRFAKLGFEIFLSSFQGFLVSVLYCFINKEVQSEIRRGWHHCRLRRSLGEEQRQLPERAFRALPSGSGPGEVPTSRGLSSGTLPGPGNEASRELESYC
# Assay: Functional in vitro GIPR antagonist potency assay (cAMP HTRF, CHO-K1 cells stably expressing hGIPR, hGIP stimulation at about EC80)
# Assay type: cell-based
# Settings: geometric mean, hGIP at estimated EC80, examples marked ^2: overall geometric mean of multiple forms (including salts) tested
# Experimental: Example AA. Functional In Vitro GIPR Antagonist Potency Assay
# The functional in vitro antagonist potency for test compounds was determined by monitoring intracellular cyclic adenosine monophosphate (cAMP) levels in Chinese hamster ovary (CHO)—K1 cells stably expressing the human Glucose-dependent Insulinotropic Polypeptide Receptor (hGIPR). Following agonist activation, hGIPR associates with the G-protein complex causing the Gαs subunit to exchange bound guanosine diphosphate (GDP) for guanosine triphosphate (GTP), followed by dissociation of the Gαs-GTP complex. The activated Gas subunit can couple to downstream effectors to regulate the levels of second messengers or cAMP within the cell. Thereby, determination of intracellular cAMP levels allows for pharmacological characterization. Intracellular cAMP levels are quantitated using a homogenous assay utilizing the Homogeneous Time Resolved Fluorescence (HTRF) technology from Perkin Elmer. […] The two entities compete for binding to a monoclonal anti-cAMP antibody labeled with cryptate. The specific signal is inversely proportional to the concentration of cAMP in the cells.
# Test compounds were solubilized to a concentration of 30 mM in 100% dimethyl sulfoxide (DMSO). An 11-point dilution series using 1 in 3.162-fold serial dilutions was created in 100% DMSO with a top concentration of 8 mM. The serially diluted compound was spotted with an Echo Acoustic liquid handler (Beckman Coulter) into a 384-well assay plate (Corning, Cat No. 3824) at 50 nL/well with duplicate points at each concentration, at a 200× final assay concentration (FAC). The final compound concentration range in the assay was 40 μM to […], with a final DMSO concentration of 0.5%.
# Frozen assay-ready vials (at 1×10^7 cells/vial) of CHO-K1 cells stably expressing the Gs-coupled human GIPR receptor (Eurofins, DiscoverX, Cat No. 95-0146C2) were thawed, counted, and resuspended in assay buffer consisting of Hank's Balanced Salt Solution (HBSS, Lonza Cat No. 10-527) containing 20 mM (4-(2-hydroxyethyl)-1-piperazineethanesulfonic acid (HEPES, Lonza, Cat No. 17-737E), 0.1% bovine serum albumin (BSA, Sigma, Cat No. A7979), and 200 μM 3-isobutyl-1-methylxanthine (IBMX, Sigma, Cat No. 15879) at a density of 4×10^5 cells/mL. Cells were added to assay plate (5 μL/well of 4×10^5 cells/mL stock for 2,000 cells/well final) containing 50 nL of 200× FAC test compound, and incubated at 37° C. (95% O2: 5% CO2) for 2 hours, with micro-clime lids (Labcyte, Cat No. LLS-0310). Following the 2-hour cell and compound incubation, a stimulation mix comprised of hGIPR agonist human glucose-dependent insulinotropic polypeptide (hGIP, full length, Sigma Cat No. G2269) in assay buffer/0.1% DMSO was added to the assay plate (5 μL/well) at an estimated EC80 FAC (based on previous hGIP agonist curves) and incubated for another 30 minutes with micro-clime lids at 37° C. (95% O2: 5% CO2), after which intracellular cAMP levels were quantified as per Perkin Elmer's protocol (5 μL of d2 and then 5 μL cryptate, incubated for 1 hour at room temperature). Emission spectra of samples were measured on a Pherastar plate reader (BMG Labtech Inc) using a HTRF protocol (excitation, 320 nm; emission, 665 nm/620 nm).
# (95% O2: 5% CO2), with a micro-clime lid. Following the 2-hour cell and DMSO incubation, a hGIP concentration response curve at 2× FAC (12-point curve using 1 in 3 serial dilutions, with triplicate points at each concentration, 100 nM final top concentration) in assay buffer/1% DMSO was added (5 μL/well) and incubated for a further 30 minutes with a micro-clime lid at 37° C. (95% O2: 5% CO2), after which intracellular cAMP levels were quantified and samples measured as described previously. Experiments passed quality control if the agonist concentration used for stimulation fell between the on-the-day EC50-EC90. […]
row,Compound,IC50 [µM]
1,"CC(C)c1ccc(NC(=O)N2CCC[C@@H]2C(=O)Nc2ccc(-c3ccc(C(=O)O)c(F)c3)cc2)cc1 [Example 28, 3-Fluoro-4′-[(1-{[4-(propan-2-yl)phenyl]carbamoyl}-D-prolyl)amino][1,1′-biphenyl]-4-carboxylic acid]",0.01
2,"COc1cc(C(=O)O)ccc1-c1ccc(NC(=O)[C@H]2CCCN2C(=O)Nc2ccc(C(C)C)cc2)cc1 [Example 29, 2-Methoxy-4′-[(1-{[4-(propan-2-yl)phenyl]carbamoyl}-D-prolyl)amino][1,1′-biphenyl]-4-carboxylic acid]",0.017
3,"COc1cc(-c2ccc(NC(=O)[C@H]3CCCN3C(=O)Nc3ccc(C(C)C)c(C)c3)cc2)ccc1C(=O)O [Example 30, 3-Methoxy-4′-[(1-{[3-methyl-4-(propan-2-yl)phenyl]carbamoyl}-D-prolyl)amino][1,1′-biphenyl]-4-carboxylic acid]",0.0057
4,"O=C(O)c1ccc(-c2ccc(NC(=O)[C@H]3CCCN3C(=O)Nc3ccc(C(F)(F)F)cc3)nc2)cc1 [Example 31, 4-{6-[(1-{[4-(Trifluoromethyl)phenyl]carbamoyl}-D-prolyl)amino]pyridin-3-yl}benzoic acid]",0.0078
5,"COc1cc(-c2ccc(NC(=O)[C@H]3CCCN3C(=O)Nc3ccc(C(C)C)c(F)c3)cc2)ccc1C(=O)O [Example 32, 4′-[(1-{[3-Fluoro-4-(propan-2-yl)phenyl]carbamoyl}-D-prolyl)amino]-3-methoxy[1,1′-biphenyl]-4-carboxylic acid]",0.0061
6,"CC(C)c1ccc(NC(=O)N2CCC[C@@H]2C(=O)Nc2cnc(-c3ccc(C(=O)O)cc3)c(F)c2)cc1 [Example 33, 4-{3-Fluoro-5-[(1-{[4-(propan-2-yl)phenyl]carbamoyl}-D-prolyl)amino]pyridin-2-yl}benzoic acid]",0.0063
7,"CO[C@@H]1C[C@H](C(=O)Nc2ccc(-c3ccc(C(=O)O)cc3)cc2)N(C(=O)Nc2ccc(C(C)C)cc2)C1 [Example 36, 4′-{[(4R)-4-Methoxy-1-{[4-(propan-2-yl)phenyl]carbamoyl}-D-prolyl]amino}[1,1′-biphenyl]-4-carboxylic acid]",0.046
8,"CC(C)c1ccc([C@H](C)NC(=O)N2CCC[C@@H]2C(=O)Nc2ccc(-c3ccc(C(=O)O)cc3)cc2)cc1 [Example 37, 4′-{[1-({(1S)-1-[4-(Propan-2-yl)phenyl]ethyl}carbamoyl)-D-prolyl]amino}[1,1′-biphenyl]-4-carboxylic acid]",0.058
9,"O=C(O)c1cccc(-c2ccc(NC(=O)[C@H]3CCCN3C(=O)Nc3ccc(C4CCC4)cc3)nc2)c1 [Example 38, 3-[6-({1-[(4-Cyclobutylphenyl)carbamoyl]-D-prolyl}amino)pyridin-3-yl]benzoic acid]",0.017
10,"Cc1cc(NC(=O)N2CCC[C@@H]2C(=O)Nc2ccc(-c3ccc(C(=O)O)cc3)cc2)ccc1C(C)C [Example 39, ammonium 4′-[(1-{[3-methyl-4-(propan-2-yl)phenyl]carbamoyl}-D-prolyl)amino][1,1′-biphenyl]-4-carboxylate]",0.0037
11,"Cc1cc(-c2ccc(NC(=O)[C@H]3CCCN3C(=O)Nc3ccc(C(C)C)cc3)cc2)ccc1C(=O)O [Example 40, 3-methyl-4′-[(1-{[4-(propan-2-yl)phenyl]carbamoyl}-D-prolyl)amino][1,1′-biphenyl]-4-carboxylic acid]",0.0073
12,"O=C(O)c1ccc(-c2ccc(NC(=O)[C@H]3CCCN3C(=O)Nc3ccc(C4(C(F)(F)F)CC4)cc3)cc2)cc1 [Example 42, ammonium 4′-{[1-({4-[1-(trifluoromethyl)cyclopropyl]phenyl}carbamoyl)-D-prolyl]amino}[1,1′-biphenyl]-4-carboxylate]",0.015
13,"Cc1cc(NC(=O)N2CCC[C@@H]2C(=O)Nc2ccc(-c3ccc(C(=O)O)cc3)cc2)ccc1Cl [Example 43, ammonium 4′-({1-[(4-chloro-3-methylphenyl)carbamoyl]-D-prolyl}amino)[1,1′-biphenyl]-4-carboxylate]",0.049
14,"CC(C)c1ccc(NC(=O)N2CCC[C@@H]2C(=O)Nc2ccc(-c3cc(C(=O)O)c(F)cc3F)cc2)cc1 [Example 45, 4,6-difluoro-4′-[(1-{[4-(propan-2-yl)phenyl]carbamoyl}-D-prolyl)amino][1,1′-biphenyl]-3-carboxylic acid]",0.54
15,"CC(C)c1ccc(NC(=O)N2CCC[C@@H]2C(=O)Nc2ccc(-c3ccc(O)cc3)cc2)cc1 [Example 46, (2R)-N^2-(4′-hydroxy[1,1′-biphenyl]-4-yl)-N^1-[4-(propan-2-yl)phenyl]pyrrolidine-1,2-dicarboxamide]",0.16
16,"CC(C)c1ccc(NC(=O)N2CCC[C@@H]2C(=O)Nc2ccc(-c3cc(F)c(O)cc3F)cc2)cc1 [Example 47, (2R)-N^2-(2′,5′-difluoro-4′-hydroxy[1,1′-biphenyl]-4-yl)-N^1-[4-(propan-2-yl)phenyl]pyrrolidine-1,2-dicarboxamide]",0.047
17,"CC(C)c1ccc(NC(=O)N2CCC[C@@H]2C(=O)Nc2ccc(-c3c(F)cc(C(=O)O)cc3F)cc2)cc1 [Example 48, 2,6-difluoro-4′-[(1-{[4-(propan-2-yl)phenyl]carbamoyl}-D-prolyl)amino][1,1′-biphenyl]-4-carboxylic acid]",0.023
18,"CC(C)c1ccc(NC(=O)N2CCC[C@@H]2C(=O)Nc2ccc(-c3ccc(C(=O)O)cc3C(F)(F)F)cc2)cc1 [Example 49, 4′-[(1-{[4-(propan-2-yl)phenyl]carbamoyl}-D-prolyl)amino]-2-(trifluoromethyl)[1,1′-biphenyl]-4-carboxylic acid]",0.014
19,"Cc1cc(C(=O)O)cc(-c2ccc(NC(=O)[C@H]3CCCN3C(=O)Nc3ccc(C(C)C)cc3)cc2)c1 [Example 50, 5-methyl-4′-[(1-{[4-(propan-2-yl)phenyl]carbamoyl}-D-prolyl)amino][1,1′-biphenyl]-3-carboxylic acid]",0.083
20,"CC(C)c1ccc(NC(=O)N2CCC[C@@H]2C(=O)Nc2ccc(-c3ccc(O)cc3F)cc2)cc1 [Example 51, (2R)-N^2-(2′-fluoro-4′-hydroxy[1,1′-biphenyl]-4-yl)-N^1-[4-(propan-2-yl)phenyl]pyrrolidine-1,2-dicarboxamide]",0.28
21,"Cc1cc(-c2ccc(NC(=O)[C@H]3CCCN3C(=O)Nc3ccc(C(C)C)cc3)cc2)ccc1C(N)=O [Example 52, (2R)-N^2-(4′-carbamoyl-3′-methyl[1,1′-biphenyl]-4-yl)-N^1-[4-(propan-2-yl)phenyl]pyrrolidine-1,2-dicarboxamide]",0.12
22,"Cc1cc(-c2ccc(NC(=O)[C@H]3CCCN3C(=O)Nc3ccc(C(C)C)cc3)cc2)cc(C)c1C(=O)O [Example 53, 3,5-dimethyl-4′-[(1-{[4-(propan-2-yl)phenyl]carbamoyl}-D-prolyl)amino][1,1′-biphenyl]-4-carboxylic acid]",0.015
